Source: patent US20050182128A1, “Use of anethole dithiolethione in lung cancer chemoprevention” (priority 2002, published 2005)
“Also recorded” adds a separate entry of the source. Marks after values point to notes of the source that are not given here.

How the values were obtained:
nuclear factor NFκB = conditions: human Jurkat cells; cited from earlier work
aflatoxin tumorigenicity = conditions: rats; cited from earlier work
[1] = 25 mg three times daily; cited from earlier work
[2] = tested on: intracellular glutathione; conditions: animals pretreated with various toxins and normal animals; cited from earlier work
human Jurkat cells = conditions: pretreatment of human Jurkat cells; cited from earlier work
bronchial dysplasia = test: Phase IIb randomized placebo-controlled trial: histopathology grade of bronchial biopsies before and after six months; type: in vivo, human
Procedure: One hundred and one volunteer current and former smokers with ≧30 pack-years smoking history and bronchial dysplasia identified by autofluorescence bronchoscopy directed biopsies were randomly assigned to receive ADT 25 mg orally TID or placebo for six months followed by a repeat bronchoscopy and biopsy of the same sites plus any new areas suspicious of dysplasia. Changes in the histopathology grade of the biopsies were used as the primary endpoint biomarker. All P values were two-sided.
Assessment For Eligibility. Five hundred and fifty-eight current and former smokers over 40 years of age in the Greater Vancouver area with a smoking history of ≧30 pack-years were invited to take part in the study. A former smoker was defined as one who had given up smoking for a year or more. They were recruited through the community outreach network of the public relations department of the British Columbia Cancer Agency (BCCA) using television programs, radio broadcasts and local newspapers. Following an initial interview, which included a questionnaire to document the smoking history, a sputum sample was obtained by induction using simultaneous high frequency chest wall oscillation with the ABI vest (Advanced Respiratory Inc. St. Pauls, Minn.) and 3% hypertonic saline for 12 minutes. […] Of these, 262 agreed to have an autofluorescence bronchoscopy with the LIFE-Lung device (Xillix Technologies Corp., Richmond, BC, Canada) (Lam et al., 1998; Lam et al., 1999). Biopsies were taken from areas with abnormal fluorescence (Lam et al., 1998; Lam et al., 1999). In addition, at least two control biopsies were taken from an upper or lower lobe. The average number of biopsies per subject was 6.7 (range 4 to 12).
Randomization. Participants with one or more sites of bronchial dysplasia were randomly assigned to receive either Sialor® (Solvay Pharma, France) at a dose of 25 mg three times daily by mouth or its placebo for six months. The placebo tablets were identical in size, shape and color to the active drug. Randomization codes were generated by a statistician at the Population and Prevention Oncology Division of BCCA and distributed to the BCCA pharmacy. All study personnel were blinded to the study coeds. Randomization was stratified according to the smoking status (current or former smoker) and dysplasia grade (mild, moderate or severe). Once a participant met the enrollment criteria, the study nurse contacted the pharmacist who then provided the study medication according to the randomization code.
(§1) Follow Up. The participants were seen monthly for examination of drug related adverse events. Liver enzymes were measured at baseline and at months 3 and 6 for toxicity monitoring. Fluorescence bronchoscopy was repeated after 6 months of study medication. The bronchoscopist was blinded to the intervention assignment. All previously biopsied sites were identified and re-biopsied under fluorescence bronchoscopy. Biopsy was also taken from new areas with abnormal fluorescence.
The primary outcome of the study was changes in the histopathology grade of the bronchial biopsies before and after six months of intervention. The secondary endpoint was changes in the nuclear morphometry index of the bronchial biopsies.
The biopsies were fixed in buffered formalin, embedded in paraffin, sectioned and stained with hematoxylin-eosin (H&E). Two pathologists (JCL, AFG) systematically reviewed them. The pathologists were blinded to the treatment assignments. All biopsies were classified into one of seven groups. Normal: as represented by pseudostratified ciliated columnar epithelium. Basal cell hyperplasia: as represented by an increase in the number and stratification of normal-appearing basal cells still covered with normal ciliated or mucin secreting cells. Metaplasia: as represented by a stratified epithelium and cytoplasmic changes consistent with squamoid differentiation. […]

lipid peroxidation = conditions: in-vitro, rat liver microsome model; cited from earlier work
[3] = Phase IIb trial: adverse events and toxicity monitoring; type: in vivo, human
Procedure: as §1

[4] = histopathology, lesion specific, 6 months
[5] = histopathology, person specific, of 56

COc1ccc(-c2cc(=S)ss2)cc1 [ADT, 5-(p-methoxyphenyl)-1,2-dithiole-3-thione]
Modulation of NFκB activation (nuclear factor NFκB): capable of modulating | Protection against aflatoxin tumorigenicity (aflatoxin tumorigenicity): protective action against aflatoxin tumorigenicity | Safety and efficacy at therapeutic dose [1]: safe and effective | Intracellular glutathione [2]: increase of intracellular glutathione | Protection against oxidative stress-induced cytotoxicity (human Jurkat cells): significantly protects cells | Progression of pre-existing dysplastic lesions and/or appearance of new lesions compared to placebo (bronchial dysplasia; 6 months, 25 mg orally TID): significantly lower rate of progression; also recorded: statistically reduces the appearances of new dysplastic lesion or progression of pre-existing dysplastic lesions | CR or PD rates, full dose compared to reduced dose (bronchial dysplasia; all P-values >0.90): no significant difference in the CR or PD rates | Biopsies of grade 1 (normal/hyperplasia) at 6 months follow-up (bronchial dysplasia; baseline grade 1): 100 | Biopsies of grade 2 (metaplasia) at 6 months follow-up (bronchial dysplasia; baseline grade 1): 9 | Biopsies of grade 3 (mild dysplasia) at 6 months follow-up (bronchial dysplasia; baseline grade 1): 5 | Biopsies of grade 4 (moderate dysplasia) at 6 months follow-up (bronchial dysplasia; baseline grade 1): 2 | Biopsies of grade 5 (severe dysplasia) at 6 months follow-up (bronchial dysplasia; baseline grade 1): 0 | Biopsies of grade 1 (normal/hyperplasia) at 6 months follow-up (bronchial dysplasia; baseline grade 2): 22 | Biopsies of grade 2 (metaplasia) at 6 months follow-up (bronchial dysplasia; baseline grade 2): 2 | Biopsies of grade 3 (mild dysplasia) at 6 months follow-up (bronchial dysplasia; baseline grade 2): 3 | Biopsies of grade 4 (moderate dysplasia) at 6 months follow-up (bronchial dysplasia; baseline grade 2): 0 | Biopsies of grade 5 (severe dysplasia) at 6 months follow-up (bronchial dysplasia; baseline grade 2): 0 | Biopsies of grade 1 (normal/hyperplasia) at 6 months follow-up (bronchial dysplasia; baseline grade 3): 53 | Biopsies of grade 2 (metaplasia) at 6 months follow-up (bronchial dysplasia; baseline grade 3): 14 | Biopsies of grade 3 (mild dysplasia) at 6 months follow-up (bronchial dysplasia; baseline grade 3): 27 | Biopsies of grade 4 (moderate dysplasia) at 6 months follow-up (bronchial dysplasia; baseline grade 3): 6 | Biopsies of grade 5 (severe dysplasia) at 6 months follow-up (bronchial dysplasia; baseline grade 3): 0 | Biopsies of grade 1 (normal/hyperplasia) at 6 months follow-up (bronchial dysplasia; baseline grade 4): 8 | Biopsies of grade 2 (metaplasia) at 6 months follow-up (bronchial dysplasia; baseline grade 4): 0 | Biopsies of grade 3 (mild dysplasia) at 6 months follow-up (bronchial dysplasia; baseline grade 4): 2 | Biopsies of grade 4 (moderate dysplasia) at 6 months follow-up (bronchial dysplasia; baseline grade 4): 3 | Biopsies of grade 5 (severe dysplasia) at 6 months follow-up (bronchial dysplasia; baseline grade 4): 1 | Biopsies of grade 1 (normal/hyperplasia) at 6 months follow-up (bronchial dysplasia; baseline grade 5): 0 | Biopsies of grade 2 (metaplasia) at 6 months follow-up (bronchial dysplasia; baseline grade 5): 0 | Biopsies of grade 3 (mild dysplasia) at 6 months follow-up (bronchial dysplasia; baseline grade 5): 2 | Biopsies of grade 4 (moderate dysplasia) at 6 months follow-up (bronchial dysplasia; baseline grade 5): 0 | Biopsies of grade 5 (severe dysplasia) at 6 months follow-up (bronchial dysplasia; baseline grade 5): 0 | Biopsies of grade 1 (normal/hyperplasia) at 6 months follow-up (bronchial dysplasia; baseline: not sampled): 34 | Biopsies of grade 2 (metaplasia) at 6 months follow-up (bronchial dysplasia; baseline: not sampled): 8 | Biopsies of grade 3 (mild dysplasia) at 6 months follow-up (bronchial dysplasia; baseline: not sampled): 13 | Biopsies of grade 4 (moderate dysplasia) at 6 months follow-up (bronchial dysplasia; baseline: not sampled): 0 | Biopsies of grade 5 (severe dysplasia) at 6 months follow-up (bronchial dysplasia; baseline: not sampled): 1 | CR rate (bronchial dysplasia; dose reduction yes): 24% | PD rate (bronchial dysplasia; dose reduction yes): 32% | PR rate (bronchial dysplasia; dose reduction yes): 32% | CR, number of participants (bronchial dysplasia; dose reduction yes, of 25): 6 | PD, number of participants (bronchial dysplasia; dose reduction yes, of 25): 8 | PR, number of participants (bronchial dysplasia; dose reduction yes, of 25): 8 | PD rate lower than placebo, person specific analysis (bronchial dysplasia; histopathology, 6 months): 22% | Partial response (PR) rate, person specific analysis (bronchial dysplasia; histopathology, 6 months): (23%) | Stable disease (SD) rate, person specific analysis (bronchial dysplasia; histopathology, 6 months): (18%) | Progressive disease (PD) rate, lesion specific analysis (bronchial dysplasia; histopathology, 6 months ADT 25 mg orally TID, placebo 17%, P<0.001): 8% | Complete response (CR) rate, lesion specific analysis (bronchial dysplasia; histopathology, 6 months, placebo 41%, P=0.14): 53% | PD rate lower than placebo, lesion specific analysis (bronchial dysplasia; histopathology, 8% ADT versus 17% placebo): 9% | CR rate higher than placebo, person specific analysis (bronchial dysplasia; histopathology, 27% versus 16%): 11% | CR rate higher than placebo, lesion specific analysis (bronchial dysplasia; histopathology, 53% versus 41%, not significant): 12% | CR lesions / dysplastic lesions at baseline (bronchial dysplasia; [4]): 61/116 | PD lesions / all biopsies (bronchial dysplasia; [4]): 24/315 | CR, number of participants (bronchial dysplasia; [5]): 15 | PD, number of participants (bronchial dysplasia; [5]): 18 | PR, number of participants (bronchial dysplasia; [5]): 13 | Association of treatment with odds of CR (bronchial dysplasia; multiple logistic regression): not significantly associated with increasing odds of CR | OR, likelihood of progressive disease six months after intervention (bronchial dysplasia; multiple logistic regression, ADT is reference, placebo OR 3.5 (95% CI 1.3-9.3, P 0.01)): 1 | PD rate (bronchial dysplasia; no dose reduction): 32% | PR rate (bronchial dysplasia; no dose reduction): 16% | CR rate (bronchial dysplasia; no dose reduction (full 25 mg TID)): 29% | CR, number of participants (bronchial dysplasia; no dose reduction (full 25 mg TID), of 31): 9 | PD, number of participants (bronchial dysplasia; no dose reduction, of 31): 10 | PR, number of participants (bronchial dysplasia; no dose reduction, of 31): 5 | Biopsies of grade 1 (normal/hyperplasia) at 6 months follow-up (bronchial dysplasia; total of all baseline grades): 217 | Biopsies of grade 2 (metaplasia) at 6 months follow-up (bronchial dysplasia; total of all baseline grades): 33 | Biopsies of grade 3 (mild dysplasia) at 6 months follow-up (bronchial dysplasia; total of all baseline grades): 52 | Biopsies of grade 4 (moderate dysplasia) at 6 months follow-up (bronchial dysplasia; total of all baseline grades): 11 | Biopsies of grade 5 (severe dysplasia) at 6 months follow-up (bronchial dysplasia; total of all baseline grades): 2 | Inhibition of lipid peroxidation (lipid peroxidation): potent inhibitor of lipid peroxidation | Adverse events, overall description ([3]; 25 mg orally TID, six months): mostly minor gastrointestinal symptoms that resolved with dose reduction or discontinuation of the medication; also recorded: only adverse events observed were gastrointestinal | Symptoms significantly more frequent than with placebo ([3]; P=0.018): Only abdominal bloating was significantly more frequent | Subjects with dose reduced to 25 mg BID ([3]; of 56): 17 | Subjects with dose reduced to 25 mg QD ([3]; of 56): 4 | Constipation ([3]; placebo 0%): 5% | Increased Saliva ([3]; placebo 4%): 2% | Abdominal Bloating ([3]; placebo 4%, P = 0.01 compared to placebo): 25%* | Participants with Grade 3 symptoms ([3]; placebo 6%): 11% | Loose Stool ([3]; placebo 8%): 16% | Diarrhea ([3]; placebo 12%): 13% | Participants with Grade 2 symptoms ([3]; placebo 20%): 51% | Participants requiring dose reduction ([3]; placebo 25%): 45% | Excessive Flatus ([3]; placebo 53%): 93% | Grade 3 elevation of liver enzymes ([3]; returned to normal after discontinuation): One of the participants
